# Reference: PubChem BioAssay (NCI)
#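 GI50 = concentration required for 50% inhibition of growth. TGI is the concentration that stops growth completely.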
# Columns and labels:
# Assay in all cases: inhibition of tumour cell growth, NCI panel, 384-well format
# [1] = tested on: 786-0 renal
# [2] = tested on: A498 renal
# [3] = tested on: A549 NSCLC
# [4] = tested on: ACHN renal
# [5] = tested on: BT-549 breast
# [6] = tested on: CAKI-1 renal
# [7] = tested on: CCRF-CEM leukemia
# [8] = tested on: COLO 205 colon
# [9] = tested on: DU-145 prostate
# [10] = tested on: EKVX NSCLC
# [11] = tested on: HCC-2998 colon
# [12] = tested on: HCT-116 colon
# [13] = tested on: HCT-15 colon
# [14] = tested on: HL-60(TB) leukemia
# [15] = tested on: HOP-62 NSCLC
# [16] = tested on: HOP-92 NSCLC
# [17] = tested on: HS 578T breast
# [18] = tested on: HT29 colon
# [19] = tested on: IGROV1 ovarian
# [20] = tested on: K-562 leukemia
# [21] = tested on: KM12 colon
# [22] = tested on: LOX IMVI melanoma
# [23] = tested on: M14 melanoma
# [24] = tested on: MALME-3M melanoma
# [25] = tested on: MCF7 breast
# [26] = tested on: MDA-MB-231 breast
# [27] = tested on: MDA-MB-435 melanoma
# [28] = tested on: MDA-MB-468 breast
# [29] = tested on: MOLT-4 leukemia
# [30] = tested on: NCI-H226 lung
# [31] = tested on: NCI-H23 lung
# [32] = tested on: NCI-H322M lung
# [33] = tested on: NCI-H460 NSCLC
# [34] = tested on: NCI-H522 lung
# [35] = tested on: NCI/ADR-RES ovarian
# [36] = tested on: OVCAR-4 ovarian
# [37] = tested on: OVCAR-5 ovarian
# [38] = tested on: OVCAR-8 ovarian
# [39] = tested on: PC-3 prostate
# [40] = tested on: RPMI-8226 leukemia
# [41] = tested on: RXF 393 renal
# [42] = tested on: SF-268 CNS
# [43] = tested on: SF-295 CNS
# [44] = tested on: SF-539 CNS
# [45] = tested on: SK-MEL-28 melanoma
# [46] = tested on: SK-MEL-5 melanoma
# [47] = tested on: SN12C renal
# [48] = tested on: SNB-19 CNS
# [49] = tested on: SNB-75 CNS
# [50] = tested on: SW-620 colon
# [51] = tested on: T-47D breast
# [52] = tested on: TK-10 renal
# [53] = tested on: U251 glioblastoma
# [54] = tested on: UACC-257 melanoma
# [55] = tested on: UACC-62 melanoma
# [56] = tested on: UO-31 renal
# [57] = tested on: OVCAR-3 ovarian
# [58] = tested on: SK-MEL-2 melanoma
# [59] = tested on: SK-OV-3 ovarian
# [60] = tested on: SR leukemia
structure (smiles),measurement,setting,value
O=C1NC(=O)C(c2cnc3ccccn23)=C1c1cn2c3c(cc(F)cc13)CN(C(=O)N1CCCCC1)CC2,GI50,[1],77.9 nM
same,TGI,[1],12400 nM
same,GI50,[2],15.6 nM
same,TGI,[2],13200 nM
same,GI50,[3],2360 nM
same,TGI,[3],27800 nM
same,GI50,[4],743 nM
same,TGI,[4],11300 nM
same,GI50,[5],< 10 nM
same,TGI,[5],18600 nM
same,GI50,[6],259 nM
same,TGI,[6],51400 nM
same,GI50,[7],< 10 nM
same,TGI,[7],245 nM
same,GI50,[8],12700 nM
same,TGI,[8],26000 nM
same,GI50,[9],2180 nM
same,TGI,[9],8620 nM
same,GI50,[10],11700 nM
same,TGI,[10],26200 nM
same,GI50,[11],128 nM
same,TGI,[11],773 nM
same,GI50,[12],1120 nM
same,TGI,[12],28400 nM
same,GI50,[13],12400 nM
same,TGI,[13],34100 nM
same,GI50,[14],464 nM
same,TGI,[14],2720 nM
same,GI50,[15],172 nM
same,TGI,[15],2580 nM
same,GI50,[16],1320 nM
same,TGI,[16],> 100000 nM
same,GI50,[17],< 10 nM
same,GI50,[18],10300 nM
same,TGI,[18],24500 nM
same,GI50,[19],2730 nM
same,TGI,[19],22200 nM
same,GI50,[20],< 10 nM
same,TGI,[20],19100 nM
same,GI50,[21],4890 nM
same,TGI,[21],21600 nM
same,GI50,[22],770 nM
same,TGI,[22],9290 nM
same,GI50,[23],2180 nM
same,TGI,[23],12000 nM
same,GI50,[24],11100 nM
same,TGI,[24],24000 nM
same,GI50,[25],< 10 nM
same,TGI,[25],17100 nM
same,GI50,[26],16300 nM
same,TGI,[26],54900 nM
same,GI50,[27],14800 nM
same,TGI,[27],40400 nM
same,GI50,[28],28.3 nM
same,TGI,[28],116 nM
same,GI50,[29],< 10 nM
same,TGI,[29],10.7 nM
same,GI50,[30],1840 nM
same,TGI,[30],11400 nM
same,GI50,[31],11000 nM
same,TGI,[31],25300 nM
same,GI50,[32],7720 nM
same,TGI,[32],29200 nM
same,GI50,[33],701 nM
same,TGI,[33],3170 nM
same,GI50,[34],13500 nM
same,TGI,[34],26700 nM
same,GI50,[35],5910 nM
same,TGI,[35],21200 nM
same,GI50,[36],11400 nM
same,TGI,[36],32000 nM
same,GI50,[37],23000 nM
same,TGI,[37],55300 nM
same,GI50,[38],833 nM
same,TGI,[38],14400 nM
same,GI50,[39],2170 nM
same,TGI,[39],18800 nM
same,GI50,[40],901 nM
same,TGI,[40],20700 nM
same,GI50,[41],< 10 nM
same,TGI,[41],362 nM
same,GI50,[42],138 nM
same,TGI,[42],491 nM
same,GI50,[43],17.5 nM
same,TGI,[43],735 nM
same,GI50,[44],< 10 nM
same,TGI,[44],12700 nM
same,GI50,[45],15200 nM
same,TGI,[45],29200 nM
same,GI50,[46],4080 nM
same,TGI,[46],15400 nM
same,GI50,[47],10700 nM
same,TGI,[47],38900 nM
same,GI50,[48],1340 nM
same,TGI,[48],37900 nM
same,GI50,[49],< 10 nM
same,TGI,[49],14400 nM
same,GI50,[50],379 nM
same,TGI,[50],15000 nM
same,GI50,[51],12700 nM
same,TGI,[51],28000 nM
same,GI50,[52],59.8 nM
same,TGI,[52],43700 nM
same,GI50,[53],30.3 nM
same,TGI,[53],332 nM
same,GI50,[54],18600 nM
same,TGI,[54],33700 nM
same,GI50,[55],513 nM
same,TGI,[55],3740 nM
same,GI50,[56],< 10 nM
same,TGI,[56],39.8 nM
Cc1nc2c(-c3cnc(N)nc3)nc(N3CCOCC3)nc2n1C(C)C,GI50,[1],246 nM
same,TGI,[1],5940 nM
same,GI50,[2],55.9 nM
same,TGI,[2],322 nM
same,GI50,[3],108 nM
same,TGI,[3],3600 nM
same,GI50,[5],95.3 nM
same,TGI,[5],469 nM
same,GI50,[6],75.1 nM
same,TGI,[6],581 nM
same,GI50,[9],149 nM
same,TGI,[9],> 100000 nM
same,GI50,[10],86.6 nM
same,TGI,[10],380 nM
same,GI50,[12],479 nM
same,TGI,[12],> 100000 nM
same,GI50,[13],76.1 nM
same,TGI,[13],> 100000 nM
same,GI50,[14],156 nM
same,TGI,[14],1040 nM
same,GI50,[15],158 nM
same,TGI,[15],13000 nM
same,GI50,[16],67.5 nM
same,TGI,[16],435 nM
same,GI50,[17],66.1 nM
same,TGI,[17],273 nM
same,GI50,[18],191 nM
same,TGI,[18],> 100000 nM
same,GI50,[19],21.8 nM
same,TGI,[19],133 nM
same,GI50,[21],270 nM
same,TGI,[21],> 100000 nM
same,GI50,[22],232 nM
same,TGI,[22],860 nM
same,GI50,[24],44.3 nM
same,TGI,[24],262 nM
same,GI50,[25],36 nM
same,TGI,[25],> 100000 nM
same,GI50,[27],184 nM
same,TGI,[27],845 nM
same,GI50,[28],65.9 nM
same,TGI,[28],351 nM
same,GI50,[29],61.8 nM
same,TGI,[29],344 nM
same,GI50,[30],122 nM
same,TGI,[30],2390 nM
same,GI50,[32],125 nM
same,TGI,[32],50500 nM
same,GI50,[33],39 nM
same,TGI,[33],> 100000 nM
same,GI50,[34],92.2 nM
same,TGI,[34],941 nM
same,GI50,[57],107 nM
same,TGI,[57],713 nM
same,GI50,[36],118 nM
same,TGI,[36],803 nM
same,GI50,[37],190 nM
same,TGI,[37],> 100000 nM
same,GI50,[39],52.8 nM
same,TGI,[39],> 100000 nM
same,GI50,[40],59.6 nM
same,TGI,[40],252 nM
same,GI50,[41],78.9 nM
same,TGI,[41],379 nM
same,GI50,[43],79.1 nM
same,TGI,[43],431 nM
same,GI50,[44],167 nM
same,TGI,[44],1120 nM
same,GI50,[58],566 nM
same,TGI,[58],941 nM
same,GI50,[45],153 nM
same,TGI,[45],969 nM
same,GI50,[46],87.8 nM
same,TGI,[46],337 nM
same,GI50,[59],92.7 nM
same,TGI,[59],430 nM
same,GI50,[49],35.5 nM
same,TGI,[49],220 nM
same,GI50,[60],195 nM
same,TGI,[60],619 nM
same,GI50,[50],460 nM
same,TGI,[50],> 100000 nM
same,GI50,[51],31.3 nM
same,TGI,[51],166 nM
same,GI50,[52],54.9 nM
same,TGI,[52],465 nM
same,GI50,[55],147 nM
same,TGI,[55],847 nM
